Source: paper PMC8399565, “Fluorescence Cross-Correlation Spectroscopy Yields True Affinity and Binding Kinetics of Plasmodium Lactate Transport Inhibitors” (Pharmaceuticals, 2021)
Read-outs that look alike come from different tables or passages of the source.

Key:
[1] = biological target: T1, PfFNT G107S-GFP (Plasmodium falciparum, UniProt O77389, G107S); assay: FCCS equilibrium saturation binding to solubilized PfFNT G107S mutant
T1 construct: The DNA of full-length PfFNT from Plasmodium falciparum 3D7 was cloned as a C-terminal GFP fusion; expressed in transfected cells; intact cells for imaging, LMNG-solubilized membranes for FCCS
T1 sequence (O77389 whole entry G107S, the tested form may be a part): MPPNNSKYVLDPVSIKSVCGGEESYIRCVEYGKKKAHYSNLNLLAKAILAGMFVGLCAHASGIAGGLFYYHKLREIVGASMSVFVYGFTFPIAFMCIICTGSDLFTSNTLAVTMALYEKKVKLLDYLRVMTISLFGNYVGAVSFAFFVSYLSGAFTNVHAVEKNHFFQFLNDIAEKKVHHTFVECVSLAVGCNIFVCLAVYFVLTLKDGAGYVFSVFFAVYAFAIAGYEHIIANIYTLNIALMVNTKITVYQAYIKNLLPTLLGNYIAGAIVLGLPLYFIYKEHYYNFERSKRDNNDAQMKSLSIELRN
Method: (§1) Next, we determined inhibitor binding affinities for both PfFNT and its G107S mutant. Solubilized cell membranes containing PfFNT-GFP at a concentration of 10 nM were incubated for 1 h at ambient temperature with increasing concentrations of labeled inhibitor molecules to obtain saturation binding curves and to calculate the dissociation constant (KD) of the interactions. Equilibrium binding experiments were pipetted in biological triplicates and carried out and analyzed as described in Antoine et al..
We next performed equilibrium saturation binding assays to assess the binding of both tracers to the mutant PfFNT G107S.
(§2) A cell pellet was resuspended in 1 mL of ice-cold TBS (50 mM Tris-HCl (pH 7.4) and 150 mM NaCl) supplemented with cOmplete™ Protease Inhibitor Cocktail (cat. no 11697498001, Roche, Switzerland) and broken by sonication on ice, using an Ultrasonic homogenizer SONOPULS HD 2070 (Bandelin, Germany). Cell debris was removed by centrifugation for 5 min at 1100× g at 4 °C, and membranes were harvested from the cleared lysate by subsequent centrifugation at 21,000× g. The resulting pellet containing cellular membranes was lysed using a Dounce homogenizer. The receptor was solubilized by incubation in 1% LMNG (cat. no NG310, Anatrace, USA) or in another detergent (DDM, DM, CHAPS, CHS, LDAO) when conducting tests to determine the best solubilization conditions. The insolubilized membrane material was removed by centrifugation for 1 h at 21,000× g at 4 °C, and the supernatant was collected and directly subjected to FCCS analysis or stored at −80 °C.
(§3) FCCS measurements were conducted in 384-well glass-bottom plates (cat. no PS96B-G175, SWISSCI, Switzerland) using an Insight plate reader (Evotec Technologies, Germany) fitted with a U-Apo300 40x water immersion lens, NA 1.15 (Olympus, Japan). The 488 nm laser line of an argon-ion laser and the light of a 633 nm helium–neon laser were used for excitation. Fluorescence fluctuations were recorded for 8 s with 12 repetitions and analyzed afterward using FCS+plus Analyze 1.1P (Evotec technologies, Version 1.2.5g). FCCS analysis was carried out as described previously. Briefly, for measuring the dissociation constant (KD), a titration series of 12 dilutions was prepared, where the concentration of the lysates obtained from HEK cells expressing GFP-fusions of PfFNT WT and G107S was kept constant, and the concentration of the labeled binding partner (BH296-DY647 and BH267.meta-DY647, respectively) was varied. The IC50 values were calculated by plotting the concentration from the dual labeled complex against the concentration of the competitor titrated over a concentration range from 10 µM to 10 pM. Samples were incubated for 1 h at room temperature prior to FCCS measurements to allow the formation of drug target complexes. From the resulting IC50 values, the Ki values were obtained by application of the Cheng Prusoff equation [17]. To assess the rate constants, time-resolved measurements were carried out at different concentrations of the labeled ligand. […] All KD and IC50 values, as well as kinetic parameters, were determined from three independently repeated experiments. The figures show one representative measurement; however, the calculated KD, Ki, kon and koff values are presented as an average of the three measurements ± SD. Error bars denote ± SEM.

[2] = biological target: T2, PfFNT wt-GFP (Plasmodium falciparum, UniProt O77389); assay: FCCS equilibrium saturation binding to solubilized PfFNT wildtype; settings: for Active Receptor (%): fraction of PfFNT-GFP involved in binding at saturation; for obtained concentration of complexes in saturation binding: same sample of solubilized membranes for both tracers
T2 construct: The DNA of full-length PfFNT from Plasmodium falciparum 3D7 was cloned as a C-terminal GFP fusion; expressed in transfected cells; intact cells for imaging, LMNG-solubilized membranes or lysates for FCCS
T2 sequence (O77389 whole entry, the tested form may be a part): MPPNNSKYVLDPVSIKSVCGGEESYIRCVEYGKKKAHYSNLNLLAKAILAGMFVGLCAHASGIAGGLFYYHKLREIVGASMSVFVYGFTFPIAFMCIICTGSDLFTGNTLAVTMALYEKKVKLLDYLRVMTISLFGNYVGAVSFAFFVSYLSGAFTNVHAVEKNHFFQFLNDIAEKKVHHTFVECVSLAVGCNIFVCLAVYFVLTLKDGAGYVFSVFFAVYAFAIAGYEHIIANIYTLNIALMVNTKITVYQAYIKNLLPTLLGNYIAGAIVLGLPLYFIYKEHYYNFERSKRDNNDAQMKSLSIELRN
Method: A total of 20 µL of solubilized membranes from HEK cells expressing PfFNT wildtype or G107S were transferred to a glass-bottom 384-well microtiter plate and analyzed for expression levels via GFP fluorescence intensity as well as diffusion times. This yielded a PfFNT protein concentration of 10 nM after membrane preparation and solubilization. The average dwell time was determined to 373 µs, which is in good agreement with membrane proteins of equal size. The signal fluctuations could be fitted to a 1-component diffusion model, indicating homogeneously monodisperse proteins (Figure S2).
as §1, §2, §3

[3] = biological target: T2, PfFNT wt-GFP; assay: Time-resolved FCCS binding kinetics
Method: To complete our biophysical interaction analysis, we determined the rate constants of both labeled inhibitors to PfFNT wildtype. This is of relevance because inhibitors with similar affinities but different association and dissociation rates can show different activity profiles. […] For measuring the kinetics of direct interactions between PfFNT and the labeled inhibitor molecules, we applied the target at a concentration of 10 nM and chose ligand concentrations that exceeded the number of target molecules by […]. In this way, we ensured that throughout the course of the kinetic measurement, the depletion of free ligands remained insignificant. First, time resolved binding curves were recorded for ligand concentrations of 148, 133, 115, 100, 81, 76, 44, 25 nM (BH296) and 120, 102, 76, 74, 65, 58, 46, 32 nM (BH267.meta), respectively, to obtain kobs values (Figure 5). Then kon and koff values were calculated by linear regression. Both inhibitors bind and dissociate with equal rate constants (Table 3) and are characterized by a rapid association. Equilibrium is reached within less than 1 min at nanomolar inhibitor concentrations. To cross-validate the reliability of our kinetic determinations, we compared the KD values derived from saturation binding assays with affinities deduced from the kinetic rate constants by dividing koff by kon.
Figure 5 Kinetic studies of the fluorescent probes BH296-DY647 and BH267.meta-DY647 with PfFNT-GFP by FCCS. Time resolved measurements of the interactions were carried out to obtain kobs-values. The kobs-values were plotted versus concentrations of the fluorescent probe. The solid line represents the best linear regression, and kon and koff of both fluorescent probes were estimated from the slope and y-intercept, respectively. kon and koff values of BH296-DY647 and BH267.meta-DY647 are summarized in Table 3.
as §3

[4] = fluorescent probe titrated against solubilized PfFNT G107S-GFP

SMILES	Kd [1]	Active Receptor (%) ([1]; fraction of PfFNT G107S-GFP involved in binding at saturation)	Kd [2]	Active Receptor (%) [2]	Kd [3]	koff [3]	kon [3]	Kd ([1]; fluorescent probe titrated against solubilized PfFNT G107S-GFP, read-out: KD (equilibrium saturation binding))	Kd ([2]; fluorescent probe titrated against 10 nM PfFNT-GFP, 1% LMNG, 1 h ambient temperature, read-out: KD (equilibrium saturation binding))	obtained concentration of complexes in saturation binding [2]	Kd ([3]; koff divided by kon, read-out: KD (Kinetics))	KD (equilibrium saturation binding) [1, 4]
CCN1/C(=C/C=C/C=C/C2=[N+](CC)c3ccc(S(=O)(=O)O)cc3C2(C)CCCC(=O)NCCOCCOCCOCCOCCC(=O)NCCCOc2ccc(C(=O)/C=C(\O)C(F)(F)C(F)(F)F)cn2)C(C)(C)c2cc(S(=O)(=O)[O-])ccc21 (stereo not shown) [BH267.meta-DY647]	405 nM	n.d. 100%	72 nM	100%	112 ± 5 nM	0.0297 s⁻¹	268000 M⁻¹ s⁻¹					
O=C(/C=C(\O)C(F)(F)C(F)(F)F)c1cccnc1 [BH267.meta]				100%				405 nM	72 nM	6 nM	112 nM	
O=C(C=C(O)C(F)(F)C(F)(F)F)c1ccc(O)cc1 [BH296, 4,4,5,5,5-pentafluoro-3-hydroxy-1-(4-hydroxyphenyl)pent-2-en-1-one]			67 nM		113 nM					3 nM		failed to bind within detection limits
CCN1/C(=C/C=C/C=C/C2=[N+](CC)c3ccc(S(=O)(=O)O)cc3C2(C)CCCC(=O)NCCOCCOCCOCCOCCC(=O)NCCCOc2ccc(C(=O)/C=C(\O)C(F)(F)C(F)(F)F)cc2)C(C)(C)c2cc(S(=O)(=O)[O-])ccc21 (stereo not shown) [BH296-DY647]	> 2000 nM		67 ± 6 nM		113 ± 2 nM	0.0311 s⁻¹	278000 M⁻¹ s⁻¹					no affinity above background
